Results reported in the supplement of paper PMC10307832.

Tests used:
Assay in all cases: relative viability (nuclei count vs DMSO), 5 days (fraction); higher = more cells survive
[1] = compound: O=C(O)c1ccc2c(c1)nc(Nc1cccc(Cl)c1)c1ccncc12 [Silmitasertib] + CC1(C)CCC(c2ccc(Cl)cc2)=C(CN2CCN(c3ccc(C(=O)NS(=O)(=O)c4ccc(N[C@H](CCN5CCOCC5)CSc5ccccc5)c(S(=O)(=O)C(F)(F)F)c4)cc3)CC2)C1 [Navitoclax] (partner 0.5 µM)
In short: (§1)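 After 5 days of treatment, lung cancer cells in 1536-well plates were fixed and stained in a single step (final 0.05% Triton X-100, 1% formaldehyde, 1 ug/ml Hoechst) and their nuclei counted on 4× images. Treatment had been applied by pin tool the day after seeding as one drug alone or as a fixed anchor-drug dose with five library-drug doses (not always all listed) in √10 steps. Relative viability is the nuclei count of treated wells divided by that of vehicle wells, and values are medians of duplicate plates.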

[2] = compound: O=C(O)c1ccc2c(c1)nc(Nc1cccc(Cl)c1)c1ccncc12 [Silmitasertib] + COc1cc2c(Oc3ccc(NC(=O)C4(C(=O)Nc5ccc(F)cc5)CC4)cc3F)ccnc2cc1OCCCN1CCOCC1 [Foretinib] (partner 0.25 µM)
In short: as §1

[3] = compound: O=C(O)c1ccc2c(c1)nc(Nc1cccc(Cl)c1)c1ccncc12 [Silmitasertib] + Cc1nc(Nc2ncc(C(=O)Nc3c(C)cccc3Cl)s2)cc(N2CCN(CCO)CC2)n1 [Dasatinib] (partner 0.075 µM)
In short: as §1

[4] = compound: O=C(O)c1ccc2c(c1)nc(Nc1cccc(Cl)c1)c1ccncc12 [Silmitasertib] + Nc1ncn([C@H]2C[C@H](O)[C@@H](CO)O2)c(=O)n1 [Decitabine] (partner 2 µM)
In short: as §1

Silmitasertib + Olaparib = compound: O=C(O)c1ccc2c(c1)nc(Nc1cccc(Cl)c1)c1ccncc12 [Silmitasertib] + O=C(c1cc(Cc2n[nH]c(=O)c3ccccc23)ccc1F)N1CCN(C(=O)C2CC2)CC1 [Olaparib] (partner 8 µM)
In short: as §1

| Cell Line | relative viability ([1]; first compound 0.04 µM) | relative viability ([1]; first compound 0.4 µM) | relative viability ([1]; first compound 1.265 µM) | relative viability ([1]; first compound 4 µM) | relative viability ([2]; first compound 0.04 µM) | relative viability ([2]; first compound 0.4 µM) | relative viability ([2]; first compound 1.265 µM) | relative viability ([2]; first compound 4 µM) | relative viability ([3]; first compound 0.04 µM) | relative viability ([3]; first compound 0.4 µM) | relative viability ([3]; first compound 1.265 µM) | relative viability ([3]; first compound 4 µM) | relative viability ([4]; first compound 0.04 µM) | relative viability ([4]; first compound 0.4 µM) | relative viability ([4]; first compound 1.265 µM) | relative viability ([4]; first compound 4 µM) | relative viability (Silmitasertib + Olaparib; first compound 0.04 µM) | relative viability (Silmitasertib + Olaparib; first compound 0.4 µM) | relative viability (Silmitasertib + Olaparib; first compound 1.265 µM) | relative viability (Silmitasertib + Olaparib; first compound 4 µM) |
| --- | --- | --- | --- | --- | --- | --- | --- | --- | --- | --- | --- | --- | --- | --- | --- | --- | --- | --- | --- | --- |
| NCI-H2009 | 1.15 | 1.09 | 1.19 | 0.788 | 1.34 | 1.16 | 1.13 | 0.897 | 0.35 | 0.297 | 0.246 | 0.218 | 0.382 | 0.39 | 0.392 | 0.371 | 0.747 | 0.638 | 0.756 | 0.595 |
| HCC-78 | 0.892 | 0.672 | 0.757 | 0.65 | 0.503 | 0.523 | 0.457 | 0.621 | 0.51 | 0.286 | 0.309 | 0.323 | 0.64 | 0.603 | 0.381 | 0.613 | 0.92 | 0.42 | 0.509 | 0.734 |
| NCI-H2170 | 0.614 | 0.339 | 0.446 | 0.433 | 1.01 | 0.881 | 0.916 | 1.01 | 0.61 | 0.502 | 0.676 | 0.598 | 0.477 | 0.46 | 0.457 | 0.441 | 0.56 | 0.299 | 0.529 | 0.574 |
| NCI-H1793 | 0.46 | 0.315 | 0.395 | 0.311 | 0.757 | 0.62 | 0.427 | 0.607 | 0.382 | 0.324 | 0.357 | 0.393 | 0.499 | 0.458 | 0.493 | 0.419 | 0.924 | 0.715 | 0.769 | 0.625 |
| HCC-366 | 1.15 |  | 0.921 | 0.82 | 1 | 0.877 | 0.78 | 1.02 | 0.57 | 0.48 | 0.525 | 0.379 | 0.37 | 0.347 | 0.31 | 0.379 | 0.396 | 0.213 | 0.373 | 0.387 |
| ABC-1 |  |  |  |  | 1.07 | 0.83 | 0.457 | 0.367 | 0.632 | 0.505 | 0.321 | 0.391 | 1.44 | 1.05 | 0.686 | 0.922 | 0.814 | 0.863 | 0.777 | 0.738 |
| NCI-H1703 | 1.44 | 1.01 | 1.15 | 0.807 | 0.348 | 0.375 | 0.359 | 0.415 |  |  |  |  |  |  |  |  | 0.513 | 0.368 | 0.541 | 0.573 |
| NCI-H661 |  |  |  |  | 1.1 | 1.01 | 0.892 | 0.884 | 1.13 | 0.723 | 0.607 | 0.569 | 0.636 | 0.617 | 0.548 | 0.441 | 0.735 | 0.679 | 0.629 | 0.493 |
| LCLC-103H |  |  |  |  | 0.828 | 0.74 | 0.632 | 0.625 | 0.449 | 0.414 | 0.419 | 0.279 | 0.791 | 0.655 | 0.616 | 0.556 | 0.817 | 0.719 | 0.641 | 0.664 |
| NCI-H2342 |  |  |  |  | 1.19 | 0.981 | 0.889 | 1.14 | 0.33 | 0.295 | 0.271 | 0.298 | 0.791 |  | 0.79 | 0.743 | 0.422 |  | 0.434 | 0.426 |
| SW 900 |  |  |  |  | 1.05 | 0.477 | 0.817 | 0.424 | 0.82 | 0.316 | 0.614 | 0.398 | 0.499 | 0.422 | 0.377 | 0.347 | 0.883 | 0.701 | 0.739 | 0.568 |
| NCI-H522 |  |  |  |  |  |  |  |  | 0.876 | 0.785 | 0.788 | 0.849 | 0.653 | 0.62 | 0.69 | 0.655 | 0.633 | 0.58 | 0.774 | 0.592 |
| CAL-12T | 1.39 | 1.16 | 1.19 | 0.387 | 1.12 | 1.02 | 1.06 | 0.478 | 0.569 | 0.32 | 0.183 | 0.198 |  |  |  |  | 0.688 | 0.465 | 0.561 | 0.531 |
| NCI-H650 |  |  |  |  | 1.07 | 0.699 | 0.884 | 0.777 | 0.479 | 0.373 | 0.375 | 0.285 | 0.309 | 0.315 | 0.322 | 0.341 | 0.4 | 0.232 | 0.317 | 0.294 |
| NCI-H2228 | 0.981 | 0.579 | 0.586 | 1.16 | 1 |  | 0.926 | 1.1 | 0.517 |  | 0.523 | 0.528 |  |  |  |  | 0.713 | 0.208 | 0.474 | 0.668 |
| NCI-H1792 | 0.651 | 0.512 | 0.573 | 0.414 |  |  |  |  | 0.869 | 0.806 | 0.824 | 0.921 | 0.6 | 0.492 | 0.529 | 0.515 | 0.308 | 0.421 | 0.431 | 0.281 |
| HCC-44 | 0.926 | 0.874 | 0.892 | 0.928 |  |  |  |  |  |  |  |  | 0.933 | 0.929 | 1.01 | 0.825 | 0.972 | 0.822 | 1.06 | 1.02 |
| IA-LM | 1.08 | 0.665 | 0.968 | 0.623 | 1.1 | 0.886 | 1.14 | 0.716 |  |  |  |  |  |  |  |  | 0.899 | 0.561 | 0.791 | 0.614 |
| NCI-H358 |  |  |  |  | 0.876 | 0.573 | 0.653 | 0.474 | 0.176 | 0.312 | 0.14 | 0.155 | 0.22 | 0.217 | 0.199 | 0.199 | 0.696 | 0.396 | 0.483 | 0.36 |
| NCI-H1563 |  |  |  |  | 0.96 | 0.952 | 0.879 | 0.974 | 0.493 | 0.486 |  | 0.431 |  |  |  |  |  |  |  |  |
